One assay has as its system Streptococcus faecalis. Nature of the assay: Bactericide test, agar growth inhibition. The assay is classed as cell-based. Particulars: vs chlortetracycline. The text has this: (§1) Test formulations were examined for bactericidal and/or bacteriostatic activity against the test organisms shown in Tables A and B. These organisms were chosen as being representative of commercially important pathogens affecting animal agriculture. The antibiotic chlortetracycline was chosen as a positive control, since it has a broad spectrum of activity against a large number of organisms, and its activity can be used for comparative purposes.
(§2) Basic test formulations of the product of Examples I, II, III, and of chlortetracycline were prepared by dissolving 16 mg (0.016 g) in 2.0 ml of stock emulsifier solution (0.25% Triton X-155 in acetone by volume) and making each solution up to 50 ml with deionized water. The concentration of the test compound in the basic formuation was 320 ppm. Lower concentrations of the test compound were obtained by diluting the basic formulation with a 4% solution of the stock emulsifier in deionized water so that each dilution in the series differed only in test compound content.
Nutrient-tryptic soy agar (NTA) consisting of 2.0% Difco Bactoagar 0.8% nutrient broth (Difco), and 0.5% tryptic soy broth (Difco) was prepared and sterilized by autoclaving. A 2 ml aliquot of each test formulation was added to 8 ml of molten NTA. This mixture was then plated in a sterile polystyrene petri dish (100 × 15 mm). After the agar was set, suspensions of each of the test organisms were simultaneously streaked into the surface of the agar. The inoculated plates were incubated for 48 hr at 28°C. The inhibition of growth of each organism was rated by visual comparison with the organism developing on non-treated agar. Growth inhibition reported as per cent control was rated in three categories as follows: 0% control, growth equivalent to that on non-treated agar; 50% control, sparse development and separated colonies; 100% control, no visible growth or development of colonies. […]

In assay [1] the test system is Bordetella bronchiseptica. As to the kind of experiment: Bactericide test, agar growth inhibition. The assay is classed as cell-based. The settings on record: vs chlortetracycline.
Text: as §1, §2
(§3) Nutrient-tryptic soy agar (NTA) consisting of 2.0% Difco Bactoagar 0.8% nutrient broth (Difco), and 0.5% tryptic soy broth (Difco) was prepared and sterilized by autoclaving. A 2 ml aliquot of each test formulation was added to 8 ml of molten NTA. This mixture was then plated in a sterile polystyrene petri dish (100 × 15 mm). After the agar was set, suspensions of each of the test organisms were simultaneously streaked into the surface of the agar. The inoculated plates were incubated for 48 hr at 28°C. The inhibition of growth of each organism was rated by visual comparison with the organism developing on non-treated agar. Growth inhibition reported as per cent control was rated in three categories as follows: 0% control, growth equivalent to that on non-treated agar; 50% control, sparse development and separated colonies; 100% control, no visible growth or development of colonies.

Assay [2] has as its system Erysipelothrix rhusiopathiae. Nature of the assay: Bactericide test, agar growth inhibition. The assay is classed as cell-based. Particulars: vs chlortetracycline.
Text: as §1, §2, §3

Another assay deals with Streptococcus agalactiae. As to the kind of experiment: Bactericide test, agar growth inhibition. In kind it is cell-based. The settings on record: vs chlortetracycline.
Text: as §1, §2, §3

The next assay deals with Streptococcus group E. As to the kind of experiment: Bactericide test, agar growth inhibition. In kind it is cell-based. The settings on record: vs chlortetracycline.
Text: as §1, §2, §3

The test system of another assay is Vibrio coli. As to the kind of experiment: Bactericide test, agar growth inhibition. In kind it is cell-based. The settings on record: vs chlortetracycline.
Text: as §1, §2, §3

A short description of assay [3]: Chick growth promotion and feed efficiency at low levels, Example VIII (Table II). In kind it is in vivo, broiler cross chicks. The text has this: Day old broiler cross chicks were weight equalized into groups of 8 chicks each and were placed in battery brooders. The 32 chick treatment groups (4 replicates) were fed one of the five rations described below for a 4 week period. Weekly measurements of body weights and feed consumption were made by replicate, and these measurements used to calculate weight gain and feed efficiency.
The basal ration was the basal ration used in Example VII above. The remaining five rations were obtained by mixing the indicated quantities by bacitracin (4 g/T), chlortetracycline (10 g/T), product of Example I (10 g/T), and product of Example III of U.S. Pat. No. 3,542,784 -- Burch (10 g/T) as growth promotants with the basal ration.

A short description of assay [4]: Chick growth promotion titration dosage, Example IX (Table III). The assay is classed as in vivo, broiler cross chicks. The text has this: The concentrations used in this test were 6.25, 12.5, 25, 50, 100, 200 and 400 g of the Product of Example I per ton of the Basal Ration described in Example VII above. The same number and size chick treatment groups were used in this test as in Example VIII above.

The nature of assay [5]: Chick growth promotion, Example XII first test (Table VI). The assay is classed as in vivo, broiler cross chicks. The settings on record: first set of tests, 25 g/T. The text has this:
(§4) The growth promotion tests described in Example X were repeated with the additional testing the products of Examples II and III.

Assay [6] in a line: Chick growth promotion, Example XII repeat test (Table VII). The assay is classed as in vivo, broiler cross chicks. Particulars: second set of tests, 25 g/T.
Text: as §4

Assay [7] can be described thus: Swine growth rate and feed efficiency, Example XIII (Table VIII). The assay is classed as in vivo, weanling pigs. The settings on record: 25 g/T. The text has this: Thirty-six weanling pigs weighing approximately 30 pounds each in good physical condition and originating from a common source were used in these tests. The pigs were allocated into sex and weight equalized pens of six pigs each. A 1 week period was allowed for acclimatization before testing. Three replicates of six pigs were fed the basal ration described below, and three replicates were fed the same basal ration supplemented with 25 g/T of the product of Example I.
The basal ration was a 17% commercial corn-soya pelletized formulation which was free of antibiotic and drug components. Composition of the basal ration formulation was: […]
The rations were offered ad libitum from 6 bushel self-feeders with a continuous supply of fresh water. The same ration formulations were used throughout the 6 week feeding period. Individual pig weighing were made after 0, 2, 4 and 6 (termination) week periods. Feed consumption records were kept on a pen basis, with feed efficiency conversion being compiled at the end of the 2nd, 4th and 6th (termination) week of feeding. Complete morbidity and mortality records were kept.

Assay [8] is described as follows: Chick growth promotion comparison, Example X (Table IV). In kind it is in vivo, broiler cross chicks. The settings on record: 25 g/T. The text has this: This example compares growth promotion activity of the product of Example I with other growth promotants at a concentration of 25 g/T in the Basal Ration described in Example VII. The other growth promotants include the product described in Example I of U.S. Pat. No. 3,542,784 -- Burch and quinoxaline-1,4-dioxide. Day old broiler cross chicks were weight equalized into groups of 8 chicks each, and four replicates of 8 chicks each were fed the experimental rations over a 4 week period.

Assay [9] is described as follows: Chick growth promotion comparison, Example XI (Table V). The assay is classed as in vivo, broiler cross chicks. Particulars: 25 g/T, 4 weeks. The text has this:
The growth promotion tests described in Example X were repeated with the exception that five replicates of 8 chicks each were fed the formulations described in Table V for 4 weeks.

Positions of bridges follow the written chain, without caps; N, C: chain ends. Non-standard residues stand in square brackets, D forms with d. Residues, ends and D or L forms follow the SMILES beside them. *: point of attachment. Ileψ(thiazoline)Cys = CC[C@H](C)[C@H](N)C1=N[C@H](C(=O)*)CS1; dOrn = NCCC[C@@H](N)C(=O)O

The source of these data is US3974277A, “2-[2-(5-Nitro-2-furyl)vinyl]-4-(anilino)quinazolines as growth promotants and feed efficiency enhancing agents” (Diamond Shamrock Corporation, priority 1975, dated 1976).

`O=[N+]([O-])c1ccc(C=Cc2nc(Nc3ccc(O)cc3)c3ccccc3n2)o1` [Example I, 2-[2-(5-nitro-2-furyl)vinyl]-4-(p-hydroxyanilino)quinazoline]: the “effectiveness compared with chlortetracycline” value (in the assay on Streptococcus faecalis; in [1]; in [2]; in the assay on Streptococcus agalactiae; in the assay with Streptococcus group E; in the assay on Vibrio coli) was “considerably more effective” throughout. Further, the “growth promotion (in words)” value in assay [3] (low levels in feed) is reported as “greater growth promotion than any of the other growth promotants”. The “weight gain (in words)” value in assay [4] (100 g/T) is “unexplained absence of weight gain improvement”. For the same compound, in assay [4] (400 g/T), the “activity (in words)” value is “sharp downturn”. Further, the “effect on growth rate and feed efficiency (in words)” value (from here on “effect … (in words)”) in [5] and in assay [6] was “moderate improvements in production parameters in both tests” throughout. In addition, the “growth and feed efficiency (in words)” value in [7] is “very substantial growth improvement and enhanced feed efficiency”.
For `[O-][n+]1cc[n+]([O-])c2ccccc21` [Quinoxaline-1,4-dioxide, quinoxaline-1,4-dioxide], in assay [8], the “response in growth rate and feed efficiency (in words)” value is “did not have any apparent effect”.
With `CC[C@H](C)[C@H](N)C1=N[C@H](C(=O)N[C@@H](CC(C)C)C(=O)N[C@H](CCC(=O)O)C(=O)N[C@H](C(=O)N[C@H]2CCCCNC(=O)[C@H](CC(N)=O)NC(=O)[C@@H](CC(=O)O)NC(=O)[C@H](Cc3cnc[nH]3)NC(=O)[C@@H](Cc3ccccc3)NC(=O)[C@H]([C@@H](C)CC)NC(=O)[C@@H](CCCN)NC2=O)[C@@H](C)CC)CS1` [Bacitracin] ({Ileψ(thiazoline)Cys}-L[dE]IK[dOrn]I[dF]H[dD]N; lactam 4-C), in assay [3] (4 g/T, 4 weeks), the “Improved Response Over Basal Ration, Feed Efficiency” value is “+1.2%” and the “Improved Response Over Basal Ration, Gain” value is reported as -2.3%. In [9], the “Improved Response Over Basal Ration, Feed Efficiency” value was “+3.1%” and the “Improved Response Over Basal Ration, Gain” value was “+1.2%”.
Consider `O=[N+]([O-])c1ccc(-c2nc(Nc3ccc(O)cc3)c3ccccc3n2)o1` [Example III of U.S. 3,542,784 - Burch, 2-(5-nitro-2-furyl)-4-(p-hydroxyanilino)quinazoline, reference compound], for which the “effect … (in words)” value in [5] and in [6] was “essentially no effect on growth rate or feed efficiency in either test” each time.
On to `O=[N+]([O-])c1ccc(C=Cc2nc(Nc3ccccc3)c3ccccc3n2)o1` [Example IV, 2-[2-(5-nitro-2-furyl)vinyl]-4-anilinoquinazoline], for which the “effectiveness compared with chlortetracycline” value (in the assay with Streptococcus faecalis; in assay [1]; in [2]; in the assay on Streptococcus agalactiae; with Streptococcus group E; in the assay on Vibrio coli) was “considerably more effective” each time.
With `O=[N+]([O-])c1ccc(C=Cc2nc(Nc3cccc(O)c3)c3ccccc3n2)o1` [Example II, 2-[2-(5-nitro-2-furyl)vinyl]-4-(m-hydroxyanilino)quinazoline], the “effectiveness compared with chlortetracycline” value (with Streptococcus faecalis; in [1]; in assay [2]; in the assay on Streptococcus agalactiae; in the assay on Streptococcus group E; with Vibrio coli) was “considerably more effective” throughout. Besides, the “effect … (in words)” value in [5] is “moderate improvements”.
